By IC50 is commonly meant the concentration needed to halve the response being measured.

The subject of the first data set is dd-strain male mice. Description: Acute toxicity test (oral, minimum lethal dose). The format is in vivo. To be noted: mortality observed for 7 days. The procedure: A test compound was orally administered to three dd-strain male mice weighing 20±1 g. The minimum lethal dose (MLD) was determined by observing the mortality for 7 days after the administration.
For the compound `COc1ccc(C(c2ccc(OC)cc2)c2cnccc2C(=O)N2CCN(c3ccccc3Cl)CC2)cc1` [Compound 6, 1-(2-Chlorophenyl)-4-{[3-bis(4-methoxyphenyl)methyl]-isonicotinyl}piperazine], the “MLD (minimum lethal dose)” value is over 300 mg/kg. For `O=C(c1ccncc1C(c1ccc(O)cc1)c1ccc(O)cc1)N1CCN(c2ccccc2Cl)CC1` [Compound 13, 1-(2-Chlorophenyl)-4-{[3--bis(4,hydroxyphenyl)methyl]isonicotinyl}piperazine], the “MLD (minimum lethal dose)” value is over 1000 mg/kg. `O=C(c1ccncc1C(c1ccc(O)cc1)c1ccc(O)cc1)N1CCN(c2cccc(Cl)c2)CC1` [Compound 18, 1-(3-Chlorophenyl)-4-{[3-bis(4-hydroxyphenyl)methyl]isonicotinyl}piperazine]: the “MLD (minimum lethal dose)” value is over 300 mg/kg.

The subject of a further data set is PTH-induced calcium release (i.e. bone resorption) from bones (calvaria). Description: Bone resorption-inhibiting effect: inhibition of PTH-induced calcium release from cultured calvaria. The format is cell-based, dd mice (5- to 6-day-old). The settings on record: mouse half calvaria culture; PTH 1×10^-8 M; calcium in medium at 96 hours; test compound 3×10^-6, 1×10^-5, 3×10^-5 M. The procedure: The bone resorption-inhibiting effect of the compounds of the present invention is illustrated by the following experiment.
Calvaria were aseptically removed from 5- to 6-day-old dd mice, washed with Dulbecco's modified phosphate-buffered saline not containing calcium and magnesium (product of Gibco Oriental Co.), and cut along the sagittal suture into left and right halves. Each half calvarium was cultured in 1.5 ml medium consisting of Dulbecco's modified Eagle medium (high glucose) (product of Gibco Oriental Co.) supplemented with 15% heat-inactivated (at 56° C. for 20 minutes) horse serum, 2.5% heat-inactivated fetal bovine serum, plus 1% antibiotic-antimycotic liquid. The test compound was dissolved in dimethylsulfoxide, and a 10 μl portion of the solution was added to the culture to the final concentrations of 3×10^-6 M, 1×10^-5 M and 3×10^-5 M. PTH (parathyroid hormone) was dissolved in 0.15M sodium chloride (pH 3), and a 3 μl-portion of the resulting solution was added to the culture to the final concentration of 1×10^-8 M. Cultures were incubated at 37° C. in a water-saturated atmosphere consisting of 5% CO2 and 95% air. Typically, cultures were maintained for 96 hours and the media were changed at 48 hours. The test compound and PTH which had been processed in the same manner as described above were added thereto. In order to investigate the action of the test compound on PTH-induced calcium release (i.e. bone resorption) from bones, there were prepared 3 groups: control group, PTH treated group (1×10^-8 M) and test compound- and PTH-treated group (3×10^-6 M, 1×10^-5 M, 3×10^-5 M). Bone resorption was assessed by measuring the accumulation of calcium in the culture media collected at 96 hours of culturing. The total calcium concentrations were determined using Calcium C-Test Wako (product of Wako). The inhibition rate was calculated therefrom according to the equation given below and 50% inhibitory concentration (IC50) was determined. [formula] CO : Total calcium concentration in the culture free from both PTH and test compound
Cp : Total calcium concentration in the culture treated with PTH only
CD : Total calcium concentration in the culture treated with both PTH and test compound.
Consider `O=C(NC12CC3CC(CC1C3)C2)c1ccncc1C(c1ccc(O)cc1)c1ccc(O)cc1` [Compound 9, N-(Tricyclo[3.3.1.0^3,7]non-3-yl)-3-[bis(4-hydroxyphenyl)methyl]-4-pyridinecarboxamide], for which the IC50 came out at 18.6 µM. For `O=C(c1ccncc1C(c1ccc(O)cc1)c1ccc(O)cc1)N1CCCCC1` [Compound 10], the IC50 was found to be 19.2 µM.

As for `O=C(NC12CC3CC(CC(C3)C1)C2)c1ccncc1C(c1ccc(O)cc1)c1ccc(O)cc1` [Compound 11, N-(Tricyclo[3.3.1.1^3,7]dec-1-yl)-3-[bis(4-hydroxyphenyl)methyl]-4-pyridinecarboxamide], the IC50 came out at 20.3 µM. Consider `O=C(NC1CCCCCCC1)c1ccncc1C(c1ccc(O)cc1)c1ccc(O)cc1` [Compound 12, N-Cyclooctyl-3-[bis(4-hydroxyphenyl)methyl]-4-pyridinecarboxamide], for which the IC50 was determined as 11.6 µM. Regarding `O=C(c1ccncc1C(c1ccc(O)cc1)c1ccc(O)cc1)N1CCN(c2ccccc2Cl)CC1` [Compound 13, 1-(2-Chlorophenyl)-4-{[3--bis(4,hydroxyphenyl)methyl]isonicotinyl}piperazine], the IC50 amounted to 6 µM. For the compound `O=C(Nc1ccc(O)cc1)c1ccncc1C(c1ccc(O)cc1)c1ccc(O)cc1` [Compound 15, N-(4-Hydroxyphenyl)-3-[bis(4-hydroxyphenyl)methyl]-4-pyridinecarboxamide], the IC50 came out at 75.6 µM. As for `O=C(c1ccncc1C(c1ccc(O)cc1)c1ccc(O)cc1)N1CCN(c2cccc(C(F)(F)F)c2)CC1` [Compound 16, 1-(3-Trifluoromethylphenyl)-4-{[3-bis(4-hydroxyphenyl)methyl]isonicotinyl}piperazine], the IC50 is 7.1 µM.

`O=C(c1ccncc1C(c1ccc(O)cc1)c1ccc(O)cc1)N1CCN(c2ccc(Cl)cc2)CC1` [Compound 17, 1-(4-Chlorophenyl)-4-{[3-bis(4-hydroxyphenyl)methyl]isonicotinyl}piperazine]: the half-inhibitory concentration (IC50) worked out at 24.9 µM. Turning to `O=C(c1ccncc1C(c1ccc(O)cc1)c1ccc(O)cc1)N1CCN(c2cccc(Cl)c2)CC1` [Compound 18, 1-(3-Chlorophenyl)-4-{[3-bis(4-hydroxyphenyl)methyl]isonicotinyl}piperazine], the IC50 stood at 14 µM. With `O=C(c1ccncc1C(c1ccc(O)cc1)c1ccc(O)cc1)N1CCN(c2ccccc2O)CC1` [Compound 19, 1-(2-Hydroxyphenyl)-4-{[3-bis(4-hydroxyphenyl)methyl]isonicotinyl}piperazine], the IC50 is 8.9 µM. `O=C(c1ccncc1C(c1ccc(O)cc1)c1ccc(O)cc1)N1CCN(c2ccccc2)CC1` [Compound 20, 1-Phenyl-4-{[3-bis(4-hydroxyphenyl)methyl]isonicotinyl}piperazine]: the IC50 was 75.6 µM. The same measure, in the same setting: the result for `Cc1cccc(N2CCN(C(=O)c3ccncc3C(c3ccc(O)cc3)c3ccc(O)cc3)CC2)c1` [Compound 21, 1-(3-Methylphenyl)-4-{[3-bis(4-hydroxyphenyl)methyl]isonicotinyl}piperazine] reads 8.5 µM; that for `O=C(c1ccncc1C(c1ccc(O)cc1)c1ccc(O)cc1)N1CCN(c2ncccn2)CC1` [Compound 22, 1-(2-Pyrimidyl)-4-{[3-bis(4-hydroxyphenyl)methyl]isonicotinyl}piperazine], 19.6 µM.

The values above are taken from US5374634A, “Pyridine derivatives” (Kyowa Hakko Kogyo Co., Ltd., priority 1992, dated 1994).
